Laboratory results as given in patent publication US20130129695A1, “METHODS FOR TREATING OR INHIBITING INFECTION BY CLOSTRIDIUM DIFFICILE” (priority 2010, published 2013).

Columns and labels:
[1] = test system: C. difficile strain ATCC 700057 (MMX 4381); experiment: Minimum Inhibitory Concentration (MIC) assay; type: cell-based, Clostridium difficile; conditions: Clostridioides difficile, ATCC700057; C. difficile ATCC 700057 (MMX 4381); growth 18-24 hours at 37° C.
Protocol: (§1) The MIC assays are carried out in a final volume of 100 μL in 96-well clear round-bottom plates according to methods established by the Clinical Laboratory Standards Institute (CLSI). Briefly, test compound suspended in 100% DMSO (or another suitable solubilizing buffer) is added to an aliquot of media appropriate for a given pathogen to a total volume of 50 μL. This solution is serially diluted by 2-fold into successive tubes of the same media to give a range of test compound concentrations appropriate to the assay. To each dilution of test compound in media is added 50 ? L of a bacterial suspension from an overnight culture growth in media appropriate to a given pathogen. Final bacterial inoculum is approximately 10^5-10^6 CFU/well. […] Ciprofloxacin is used as an antibiotic-positive control in each screening assay. Each of the bacterial cultures that are available from the American Type Culture Collection (ATCC, www.atcc.org) is identified by its ATCC number.

[2] = test system: C. difficile strain MMX3581 (clinical); experiment: Minimum Inhibitory Concentration (MIC) assay; type: cell-based, Clostridium difficile; conditions: Clostridioides difficile, growth 18-24 hours at 37° C.
Protocol: as §1

CD3299 riboswitch = experiment: In-line probing assay, binding of ligands to CD3299 riboswitch; set-up: species or system Clostridium difficile
Protocol: An in-line probing assay, as described in Regulski and Breaker, “In-line probing analysis of riboswitches”, (2008), Methods in Molecular Biology, Vol 419, pp 53-67, the contents of which are incorporated by reference, is used to estimate the dissociation binding constants for the interaction of each of the ligands described herein with a CD3299 riboswitch amplified from Clostridium difficile. Precursor mRNA leader molecules are prepared by in vitro transcription from templates generated by PCR and [5′-^32P]-labeling using methods described previously (Regulski and Breaker, In-line probing analysis of riboswitches (2008), Methods in Molecular Biology Vol 419, pp 53-67). Approximately 5 nM of labeled RNA precursor is incubated for 41 hours at 25° C. in 20 mM MgCl2, 50 mM Tris/HCl (pH 8.3 at 25° C.) in the presence or absence of a fixed concentration of each ligand. Binding to the CD3299 riboswitches are measured 100 ? M. In-line cleavage products are separated on 10% polyacrylamide gel electrophoresis (PAGE), and the resulting gel is visualized using a Molecular Dynamics Phosphorimager. […]
In-line probing exploits the natural ability of RNA to self-cleave at elevated pH and metal ion concentrations (pH≈8.3, 25 mM MgCl2) in a conformation-dependent manner. […] These ligand-dependent changes in RNA cleavage can be readily detected by denaturing gel electrophoresis. […]

Row | MIC [1] [µg/mL] | MIC [2] [µg/mL] | SMILES | binding to the CD3299 riboswitch (in words) (CD3299 riboswitch)
1 | ≤ 64 | ≤ 64 | Cc1cc2nc3c(=O)[nH]c(=O)nc-3n(CCNCc3ccc(Cl)cc3)c2cc1C [Compound 1] | –
2 | ≤ 64 | ≤ 64 | Cc1cc2nc3c(=O)[nH]c(=O)nc-3n(CCNCc3ccccc3)c2cc1C [Compound 2] | –
3 | – | – | Cc1cc2nc3c(=O)[nH]c(=O)nc-3n(C[C@H](O)[C@H](O)[C@H](O)COP(=O)(O)O)c2cc1C [FMN, Flavin mononucleotide] | does not bind
